For 16 compounds, GI50 and TGI results are on record in PubChem BioAssay (NCI).

Assay in all cases: NCI-60 cell line screen, 48 h
For test [1], the system named is NCI/ADR-RES ovarian.
Test [2] relates to MDA-MB-435.
The subject of test [3] is 786-0 renal.
Test [4] deals with UACC-62 melanoma.
Test [5] concerns TK-10 renal.
The subject of test [6] is EKVX NSCLC.
Test [7] deals with UACC-257 melanoma.
Test [8] relates to HT29 colon.
The test system of test [9] is NCI-H226 lung.
The test system of test [10] is MALME-3M melanoma.

“And” between values parts separate entries of the source, which are not always exact repeats. Equal entries are not always repeated.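 Grown in 96-well plates, cells were treated for 48 hours with each compound at five concentrations. Insufficient inhibition: endpoint recorded as highest concentration tested. GI50 = concentration required for 50% inhibition of growth. TGI denotes the concentration required for complete inhibition of growth.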

For the compound `Nc1nccc(-c2c(-c3ccc(F)cc3)ncn2C2CCNCC2)n1`, the GI50 in [1] is > 25 µM and 5.1 µM; in test [2] it was 2.87 µM and 4.17 µM; in test [3], 16 µM and 5.59 µM; in test [4], 11.1 µM and 4.61 µM; in [5] it was 7.66 µM and 2.79 µM; in test [6], > 25 µM and 5.01 µM. The GI50 in test [7] is 10.2 µM and 3.45 µM; in [8], 1.68 µM and 1.28 µM; in [9], 1.27 µM and 3.97 µM; in test [10], 8.72 µM and 5.23 µM. For the same compound, the TGI in test [1] is over 25 µM; in test [2], over 25 µM; in [3] it was over 25 µM; in [4], over 25 µM; in test [5] it was > 25 µM and 14.8 µM; in test [6], > 25 µM and 24.8 µM. Also, the TGI in test [7] is > 25 µM and 17.6 µM; in test [8], over 25 µM; in test [9] it was > 21.2 µM and 20.1 µM; in [10], > 25 µM and 21.4 µM.
For `Cc1cccc(N(C)C(=O)[C@@H]2[C@H](O)CCN2c2nc(C)cc(C(F)(F)F)c2C#N)c1`, the GI50 in [1] was 22.6 µM; in [2], 32 µM; in [3], 21.6 µM; in [4], 21.9 µM; in test [5] it was 28.5 µM; in [6], 24.6 µM. For the same compound, the GI50 in test [7] is 28.3 µM; in [8], 15.6 µM; in [9] it was 23.9 µM; in [10], 19.9 µM. Further, the TGI in [1] was 89.1 µM; in test [2] it was over 100 µM; in [3], 66.9 µM; in test [4] it was 74.5 µM; in test [5], over 100 µM; in [6] it was over 100 µM. Also, the TGI in [7] is over 100 µM; in [8], 49.1 µM; in [9], over 100 µM; in test [10], 59 µM.
Consider `CCN1C/C(=C\c2cc(OC)c(OC)cc2OC)C(=O)/C(=C/c2cc(OC)c(OC)cc2OC)C1`, for which the GI50 in [1] is 3.12 µM; in [2], 2.07 µM; in test [3] it was 2.87 µM; in test [4], 2.13 µM; in test [5], 3.88 µM; in [6], 3.5 µM. The GI50 in [7] is 4.32 µM; in test [8] it was 2.63 µM; in [9] it was 2.59 µM; in test [10], 1.94 µM. Also, the TGI in test [1] is over 100 µM; in test [2] it was 4.3 µM; in [3], 8.09 µM; in test [4], 4.28 µM; in test [5], 11.3 µM; in test [6] it was 30.6 µM. Further, the TGI in test [7] came to 28 µM; in test [8] it was 5.69 µM; in test [9], 5.59 µM; in test [10] it was 3.59 µM.
Turning to `CC1=CC(=O)C2=C(C)CCC3C(C)C(=O)OC3C12` (stereo not drawn), the TGI in test [1], in test [2], in test [3], in test [4], in test [5] and in test [6] was over 100 µM throughout. The TGI in [7], in test [8], in [9] and in [10] was over 100 µM in each case.
Regarding `CCC(C)[C@H]1O[C@]2(CC[C@@H]1C)C[C@@H]1C[C@@H](C/C=C(\C)[C@@H](OC3C[C@H](OC)C(O[C@H]4C[C@H](OC)[C@@H](O)[C@H](C)O4)[C@H](C)O3)[C@@H](C)/C=C/C=C3\CO[C@@H]4[C@H](O)C(C)=C[C@@H](C(=O)O1)[C@]34O)O2` (stereo partly drawn), the GI50 is 3.43 µM in test [1]; 3.89 µM in test [2]; 3.66 µM in test [3]; 1.89 µM in test [4]; 3.08 µM in [5]; 2.95 µM in test [6]. In addition, the GI50 in [7] is 2.17 µM; in [8], 2.4 µM; in test [9] it was 1.58 µM; in [10], 2.74 µM. For the same compound, the TGI in [1] stood at 13.7 µM; in test [2], 15.9 µM; in [3] it was 14 µM; in [4] it was 6.5 µM; in [5], 12.7 µM; in test [6], 15.1 µM. Moreover, the TGI in [7] is 6.25 µM; in test [8], 5.81 µM; in test [9], 3.79 µM; in [10] it was 14.5 µM.
As to `COC(=O)c1n[nH]c(C)c1N=NN(C)CCC#N`, the TGI in test [1] was 36.4 µM; in test [2], over 100 µM; in test [3] it was 48.4 µM; in test [4], 35.2 µM; in test [5] it was 62.4 µM; in test [6] it was 29.2 µM. In addition, the TGI is over 100 µM in [7], 87.8 µM in test [8], 35.8 µM in [9] and 34.6 µM in test [10].
In the case of `C/C(=N\NC(=S)N1CCCCC1)c1ccccn1`, the GI50 is under 0.01 µM in test [1]; 0.208 µM in test [2]; 0.0517 µM in test [3]; 0.106 µM in test [4]; 0.472 µM in [5]; under 0.0145 µM in test [6]. Moreover, the GI50 in test [7] is under 0.01 µM; in test [8], under 0.01 µM; in [9] it was 0.32 µM; in test [10], 0.145 µM. In addition, the TGI stood at 6.77 µM in test [1]; 5.89 µM in test [2]; 2.39 µM in test [3]; 3.93 µM in [4]; 4.14 µM in test [5]; 3.99 µM in test [6]. Further, the TGI in test [7] was determined as 0.442 µM; in [8], 4.06 µM; in test [9], 2.95 µM; in [10], 3.05 µM.
On to `c1cc(NNc2cccc(-c3nn[nH]n3)c2)cc(-c2nn[nH]n2)c1`, for which the TGI in test [1], in [2], in test [3], in test [4], in test [5] and in [6] was over 100 µM each time. In addition, the TGI in [7], in test [8], in test [9] and in test [10] was over 100 µM each time.
`COc1ccc(/C=C/C(=O)c2cc(OC)c(OC)c(OC)c2)cc1OCC(=O)Nc1nc2ccc(OC(F)(F)F)cc2s1`: the GI50 was 0.492 µM in test [1]; 0.3 µM in test [2]; 2.26 µM in test [3]; 9.52 µM in test [4]; 2.08 µM in test [5]; 5.11 µM in test [6]. Also, the GI50 was 8.08 µM in test [7], 3.66 µM in [8], 3.35 µM in [9] and 2.69 µM in test [10]. In addition, the TGI in [1] was 2.31 µM; in [2], 1.08 µM; in test [3] it was 4.97 µM; in test [4] it was 42.1 µM; in [5] it was 4.62 µM; in test [6], over 100 µM. Also, the TGI was over 100 µM in test [7], 79.4 µM in [8], 32.1 µM in test [9] and 13.5 µM in test [10].
As for `COc1cc2c(cc1OC)[C@@H](Nc1ccc(C#N)cc1)C1COC(=O)[C@@H]1C2c1cc(OC)c(O)c(OC)c1` (stereo partly drawn), the TGI was over 100 µM in test [1]; over 100 µM in [2]; 2.76 µM in test [3]; 12.9 µM and 2.68 µM in test [4]; 6.73 µM and 7.87 µM in [5]; 95 µM and 62.5 µM in test [6]. Moreover, the TGI is 95 µM and > 100 µM in [7]; 23.2 µM and > 100 µM in [8]; 0.298 µM in test [9]; 70.7 µM and 44.2 µM in test [10]. The GI50 in test [4] was 0.372 µM and 0.167 µM; in test [5], 2.49 µM and 1.06 µM; in test [6] it was 16.4 µM and 6.9 µM; in test [10], 1.36 µM and 2.47 µM.
As to `O=Nc1ccc(O)c(=O)cc1`, the GI50 in test [1] is 2.6 µM; in [2], 3.28 µM; in test [3], 2.18 µM; in test [4], 2.01 µM; in test [5], 1.82 µM; in [6], 6.93 µM. Also, the GI50 was 2.26 µM in [7], 2.45 µM in [8], 2.5 µM in [9] and 1.21 µM in test [10]. Also, the TGI came to 10.6 µM in [1]; 13.2 µM in test [2]; 5.52 µM in [3]; 5.68 µM in test [4]; 9.18 µM in [5]; 23.4 µM in test [6]. Further, the TGI in [7] was found to be 7.86 µM; in test [8], 10.7 µM; in [9] it was 8.64 µM; in [10], 4.14 µM.
As for `CC(=O)c1ccc2c(c1)c1cc(C(C)=O)ccc1n2CCNC(C)C`, the GI50 was 0.371 µM in test [1]; 0.364 µM in test [2]; 0.456 µM in [3]; 0.25 µM in test [4]; 0.531 µM in test [5]; 0.548 µM in [6]. The GI50 in [7] is 0.296 µM; in [8], 0.342 µM; in test [9] it was 0.281 µM; in [10], 0.23 µM. The TGI in test [1] is 8.09 µM; in test [2], 1.44 µM; in test [3] it was 3.32 µM; in test [4], 0.78 µM; in test [5] it was 5.02 µM; in test [6] it was 4.97 µM. Also, the TGI in test [7] was found to be 1.31 µM; in [8] it was 2.18 µM; in test [9], 2.19 µM; in test [10] it was 0.596 µM.
Regarding `CCCCCCCCCCCCOC1C(CNC(=O)C2OC3OC(C)(C)OC3C2NC(=O)Nc2ccc(CC(=O)OC)cc2)OC2OC(C)(C)OC21` (stereo not drawn), the GI50 in [1], in test [2], in [3], in test [4], in test [5] and in test [6] was over 100 µM throughout. Further, the GI50 was over 100 µM in test [7], over 100 µM in [8], over 100 µM in test [9] and over 78.1 µM in test [10]. The TGI in test [1], in [2], in test [3], in [4], in test [5] and in test [6] was over 100 µM each time. In addition, the TGI in [7], in test [8], in test [9] and in test [10] was over 100 µM in each case.
Turning to `CCOC(=O)c1cc(C(=O)c2cc(OC)c(OC)c(OC)c2)n2ncccc12`, the GI50 in test [1] is 0.237 µM; in test [2], 0.0314 µM; in test [3] it was 2.17 µM; in test [4] it was 0.196 µM; in test [5], 26.4 µM; in test [6] it was 0.65 µM. In addition, the GI50 is 65.7 µM in [7], 0.245 µM in test [8] and 28.2 µM in test [9]. Further, the TGI in test [1] is over 42.9 µM; in test [2], 0.117 µM; in [3], over 100 µM; in test [4], over 100 µM; in test [5] it was over 100 µM; in [6], over 100 µM. In addition, the TGI in [7], in test [8], in [9] and in test [10] was over 100 µM throughout.
`NNC(=S)N/N=C(\C(=O)Nc1cccc(O)c1)C1C(=O)NC(=S)NC1=O`: the TGI in test [1], in test [2], in test [3], in test [4], in [5] and in [6] was over 100 µM each time. In addition, the TGI in test [7], in [8], in test [9] and in [10] was over 100 µM each time.
`CCN(CCCN(C)C)Cc1cc(I)cc(C)c1O`: the GI50 in [1] was 27 µM; in test [2], 15.7 µM; in test [3], 18.6 µM; in test [4] it was 16.4 µM; in test [5] it was 4.85 µM; in [6], 26.5 µM. Further, the GI50 is 16.3 µM in test [7], 14.7 µM in test [8], 38.8 µM in [9] and 19.8 µM in test [10]. Also, the TGI in test [1] is over 100 µM; in test [2] it was 31.6 µM; in test [3], 40 µM; in test [4], 37.1 µM; in test [5] it was 22.6 µM; in test [6], over 100 µM. Also, the TGI in [7] is 32.5 µM; in test [8], 32.4 µM; in test [9], over 100 µM; in test [10] it was 36.8 µM.
